Reference: patent US11242331B2 (University of Florida Research Foundation, Incorporated, priority 2016, dated 2022)

Columns and labels:
Staphylococcus aureus = experiment: Bacterial growth inhibition assay, S. aureus; format: cell-based; conditions: 16-18 h, OD600
Method: (§1) Each biological screen was performed in three independent experiments at concentrations of 1, 10, 100 or 200 μM. All hit compounds identified in primary screens were then evaluated in follow-up assays to validate/confirm the initial screening results.
Bacterial growth inhibition was determined by screening all yohimbine-derived compounds at 200 μM in 96-well plates. Briefly, 2 μL of a 20 mM DMSO stock solution (test compound) was added to 98 μL of media (tryptic soy broth with 0.5% glucose for S. aureus; LB for A. baumannii) before each well was treated with an additional 100 μL of inoculated media (giving ˜10^5 colony forming units per milliliter) prepared from a fresh log-phase culture (OD600 of 0.8 to 1.0). The inoculated 96-well plates were then covered and placed in a humidifying chamber and allowed to incubate at 37° C. for 16-18 hours. Bacterial growth was then determined using a spectrophotometer plate reader (OD600) to quantify turbidity (growth) in each treated and untreated well of the 96-well plates. Turbidity for treated wells were compared to a 1% v/v DMSO vehicle and recorded in the screening heat map. All compounds were tested in three independent experiments.

[1] = system: endogenous Nrf2 target gene, NQO1; experiment: RT-qPCR validation of ARE inhibition in MDA-MB-231-ARE-Luc cells; format: cell-based, human; conditions: 24 h, relative to 0.5% DMSO
Method: (§2) The library compounds were then assessed for the potential to modulate the activity of another key transcription factor, NF-E2-related factor 2 (Nrf2), which acts on the antioxidant response element (ARE) in the promoter region upstream of antioxidant and phase II detoxification enzymes. Activators of the Nrf2-ARE pathway have potential as cancer preventive agents because of their ability to increase antioxidant status of the cell and protect from oxidative damage that could lead to cancer. Inhibitors in turn may increase the susceptibility of cancer cells to chemotherapeutic agents and overcome drug resistance since Nrf2 is commonly activated in cancer.^44 To screen for Nrf2 inhibitors, MDA-MB-231 breast cancer cells (a model for invasive, triple negative breast cancer) stably transfected with the ARE-luciferase reporter were used, where the promoter region is derived from the human NQO1 gene.^45 As a control, cell viability was monitored to ensure the identification of false positives in the reporter gene assay that are a result of concomitant reduced cell viability.
The antioxidant response element (ARE) expression induction assay with LNCaP cells was performed as previously described.^6 The ARE expression inhibition assay was performed with MDA-MB-231-ARE-Luc cells that stably express the ARE reporter construct.7 MDA-MB-231-ARE-Luc cells were seeded in 96 well plates at 1.5×10^4 cells/well in DMEM medium (GIBCO) containing 10% FCS and 1% antibiotic-antimycotic (GIBCO), and allowed to attach overnight. Test compounds were screened in triplicate at three concentrations (100, 10 and 1 μM) and ARE expression was quantified on the EnVision plate reader (Perkin-Elmer) using the BriteLite plus luciferase reporter assay system (Perkin-Elmer) after 24 h exposure in a humidified incubator at 37° C. with 5% CO2. […]
In order to validate the ARE modulatory effects of compounds from the primary screen, the expression of the target Nrf2 target gene, Ngo1, was quantified by RT-qPCR. […]

endogenous NQO1 = experiment: RT-qPCR validation of ARE activation in LNCaP cells; format: cell-based, human; conditions: for levels of endogenous NQO1 (ARE activation): 24 h, RT-qPCR, relative to 0.5% DMSO; for potency compared with positive control sulforaphane: NQO1 RT-qPCR, sulforaphane 10 μM
Method: (§3) As a control, LNCaP viability was monitored in parallel (FIG. 11E).
(§4) The antioxidant response element (ARE) expression induction assay with LNCaP cells was performed as previously described.^6 The ARE expression inhibition assay was performed with MDA-MB-231-ARE-Luc cells that stably express the ARE reporter construct.7 MDA-MB-231-ARE-Luc cells were seeded in 96 well plates at 1.5×10^4 cells/well in DMEM medium (GIBCO) containing 10% FCS and 1% antibiotic-antimycotic (GIBCO), and allowed to attach overnight. Test compounds were screened in triplicate at three concentrations (100, 10 and 1 μM) and ARE expression was quantified on the EnVision plate reader (Perkin-Elmer) using the BriteLite plus luciferase reporter assay system (Perkin-Elmer) after 24 h exposure in a humidified incubator at 37° C. with 5% CO2. In both cell line assays the luciferase expression for compound-treated wells was expressed relative the 0.5% DMSO carrier solvent control. A parallel viability assay was performed with the Cell Titer 96 Non-radioactive Cell Proliferation Assay (Promega) and the data expressed in the same manner as above. Compounds that inhibited ARE expression 20% more than viability, or induced ARE expression more than three-fold were re-tested in a seven-point, two-fold serial dilution dose-response assay (100-1.56 μM).
In order to validate the ARE modulatory effects of compounds from the primary screen, the expression of the target Nrf2 target gene, Ngo1, was quantified by RT-qPCR. LNCaP and MDA-MB-231-ARE-Luc cells were seeded in 6 well plates at 5×10^5 and 7×10^5 cells per well, in EMEM and DMEM media containing 10% FCS and 1% antibiotic-antimycotic (GIBCO) respectively. Cells were allowed to attach overnight before the addition of test compounds. After 24 h exposure in a humidified incubator at 37° C. with 5% CO2, RNA was isolated using the RNeasy kit (Qiagen) and quantified using a NanoDrop spectrophotometer (Thermo Fisher Scientific). cDNA was synthesized from 2 μg of RNA using Oligo(dT)12-18 (Life Technologies) primer and SuperScript II (Thermo Fisher Scientific) on the Mastercycler Gradient PCR machine (Eppendorf) for 1 h at 42° C. following a 10 min denaturation at 65° C. Gene expression was quantified on the 7300 Real Time PCR machine (Applied Biosystems) using TaqMan Gene Expression Master Mix (Thermo Fisher Scientific) and probes for the target gene Nqo1 (Hs02512143_s1, Thermo Fisher Scientific) and reference gene ActB (Hs99999903_m1, Thermo Fisher Scientific). Real time PCR was performed with the following thermal cycle: 1. 50° C. for 2 min; 2. 95° C. for 10 min; 3. 40 cycles of 95° C. for 15 sec followed by 60° C. for 1 min.

RAW264.7 cells = experiment: RAW264.7 cell viability (MTT); format: cell-based, mouse; conditions: 24 h
Method: Human colorectal cancer cell lines HCT116, HCT116^HIF-1α−/−HIF-2α−/−, and HCT 116^WT KRAS were cultured in Dulbecco's Modified Eagle Medium (DMEM) supplemented with 10% fetal bovine serum and maintained in 5% CO2 at 37° C. The cells were seeded in a 96-well plate (10,000 cells/well) and treated with different concentrations of test compounds or solvent control (0.5% DMSO) after 24 h. Cell viability was measured 48 h following treatment with MTT dye using the manufacturer's protocol (Promega).
(§5) Mouse macrophage, RAW264.7 cells were cultured in Dulbecco's Modified Eagle Medium (DMEM) supplemented with 10% fetal bovine serum and maintained in 5% C02 at 37° C. Cells were seeded in 96-well plates (20,000 cells/well) and after 24 h pretreated for 1 hour with different concentrations of test compounds in triplicate or solvent control (0.5% DMSO) before adding LPS (1 μg/mL in PBS). Nitric oxide (NO) production in culture supernatant was assessed after 24 h following treatment by measuring nitrite concentration, an oxidative product of NO. Nitrite production was measured by mixing […] of culture supernatant with […] of Griess reagent (Promega), absorbance measured at 540 nm and NO % calculated against a calibration curve generated for fresh sodium nitrite standard. Cells were used for measuring viability (24 h) as above.

[2] = system: parental HCT116 and HCT116 HIF-1α−/−HIF-2α−/− cells; experiment: Cell viability assay in isogenic HCT116 lines (HIF-dependent anticancer activity); format: cell-based, human; conditions: parental HCT116 vs HCT116 HIF-1α/HIF-2α double knockout, 48 h, MTT
Description: The screen aimed to identify selective antiproliferative agents that preferentially act on cancer cells with functional hypoxia-inducible factors (HIF) pathways. […] Isogenic HCT116 colorectal cancer cell lines were employed, including parental HCT116 and HCT116 double knockout cells lacking HIF-1α and HIF-2α,^36,37 and the library was screened for differential antiproliferative activity.

[3] = system: NO production in RAW264.7 cells; experiment: Nitric oxide assay (Griess reagent); format: cell-based, mouse; conditions: RAW264.7 macrophage cells, LPS, 24 h
Method: as §1, §5

[4] = system: Nrf2-ARE pathway (ARE-luciferase reporter); experiment: ARE luciferase assay in MDA-MB-231-ARE-Luc cells (inhibition); format: cell-based, human; conditions: 24 h, screened at 100, 10 and 1 μM
Method: as §1
as §2, with “viability. […]” for “viability.”

[5] = system: Nrf2-ARE pathway (ARE-luciferase reporter); experiment: ARE luciferase assay in LNCaP cells (activation); format: cell-based, human; conditions: 24 h, screened at 100, 10 and 1 μM
Method: as §1, §3
as §4, with “Compounds that inhibited ARE expression 20% more than viability, or induced ARE expression more than three-fold were re-tested in a seven-point, two-fold serial dilution dose-response assay (100-1.56 μM).” left out

COC(=O)[C@@H]1[C@H]2C[C@@H](c3[nH]c4ccccc4c3CCn3cc(-c4cccc(Cl)c4)nn3)N(C#N)C[C@@H]2CC[C@@H]1O [Y1f]
inhibition at 200 µM (Staphylococcus aureus): ~20%
transcription of endogenous NQO1 [1]: downregulated NQO1 transcription

COC(=O)[C@@H]1[C@H]2C[C@@H]3N(CC[C@@]34C(=O)N(c3ccc(Oc5ccccc5)cc3)c3ccccc34)C[C@@H]2CC[C@@H]1O [Y3e]
transcription of endogenous NQO1 [1]: downregulated NQO1 transcription

OC[C@@H]1[C@H]2C[C@@H]3OCc4ccccc4-n4c3c(c3ccccc34)CCNC[C@@H]2CC[C@@H]1O [Y5b]
levels of endogenous NQO1 (ARE activation) (endogenous NQO1): active at lower concentrations
potency compared with positive control sulforaphane (endogenous NQO1): only slightly less potent than the positive control

COC(=O)[C@@H]1[C@H]2C[C@H](OCc3ccc(Br)cc3)c3[nH]c4ccccc4c3CCN(C#N)C[C@@H]2CC[C@@H]1O [Y6q]
inhibition at 200 µM (Staphylococcus aureus): ~20%
transcription of endogenous NQO1 [1]: downregulated NQO1 transcription

CC(=O)N1CCc2c([nH]c3ccccc23)[C@H](OCc2ccccc2)C[C@H]2[C@@H](CC[C@H](O)[C@@H]2CO)C1 [Y6u]
levels of endogenous NQO1 (ARE activation) (endogenous NQO1): active at lower concentrations
potency compared with positive control sulforaphane (endogenous NQO1): only slightly less potent than the positive control

COC(=O)[C@@H]1[C@H]2C[C@@H]3N(CC[C@@]34C(=O)N(Cc3cccc(OC)c3)c3ccccc34)C[C@@H]2CC[C@@H]1OCc1cccc(OC)c1 [Y7g]
cell viability (RAW264.7 cells): almost unaffected
differential (HIF-dependent) antiproliferative activity [2]: most selective antiproliferative agent
inhibition of nitric oxide (NO) production [3]: most selective anti-inflammatory activity

COC(=O)[C@@H]1[C@H]2C[C@H]3c4[nH]c5ccccc5c4CCN3C[C@@H]2CC[C@@H]1O [yohimbine 1, yohimbine]
ARE inhibition (luciferase reporter) [4]: does not possess any of these activities
inhibition of nitric oxide (NO) production [3]: does not possess any of these activities
ARE activation (luciferase reporter) [5]: does not possess any of these activities
